From patent publication US9783552B2, “Soluble guanylate cyclase activators” (MERCK SHARP & DOHME CORP., priority 2013, dated 2017) come the findings set out here.

Structures are written as SMILES.

This test addresses T1, sGC α1/β1 heterodimer (Homo sapiens, UniProt Q02108+Q02153).
T1 construct: expressed in transfected cells
T1 sequence (Q02108 1-690): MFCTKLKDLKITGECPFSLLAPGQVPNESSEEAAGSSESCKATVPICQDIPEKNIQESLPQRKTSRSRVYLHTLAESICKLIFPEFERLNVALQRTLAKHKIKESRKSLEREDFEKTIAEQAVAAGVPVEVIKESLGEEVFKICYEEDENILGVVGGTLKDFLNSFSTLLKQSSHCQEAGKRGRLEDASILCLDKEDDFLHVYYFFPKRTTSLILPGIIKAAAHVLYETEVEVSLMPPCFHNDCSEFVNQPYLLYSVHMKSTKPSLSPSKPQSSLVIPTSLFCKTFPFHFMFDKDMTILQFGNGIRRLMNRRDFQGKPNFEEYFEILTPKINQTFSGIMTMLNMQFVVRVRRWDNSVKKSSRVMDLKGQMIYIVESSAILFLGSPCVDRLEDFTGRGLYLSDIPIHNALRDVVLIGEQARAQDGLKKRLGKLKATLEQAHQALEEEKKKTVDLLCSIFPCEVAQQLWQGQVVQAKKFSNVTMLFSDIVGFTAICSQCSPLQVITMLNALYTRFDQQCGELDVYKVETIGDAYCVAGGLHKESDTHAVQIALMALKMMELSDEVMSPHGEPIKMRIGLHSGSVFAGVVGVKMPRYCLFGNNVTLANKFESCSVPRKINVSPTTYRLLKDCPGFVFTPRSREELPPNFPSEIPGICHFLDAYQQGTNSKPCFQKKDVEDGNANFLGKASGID
T1 sequence (Q02153 1-619): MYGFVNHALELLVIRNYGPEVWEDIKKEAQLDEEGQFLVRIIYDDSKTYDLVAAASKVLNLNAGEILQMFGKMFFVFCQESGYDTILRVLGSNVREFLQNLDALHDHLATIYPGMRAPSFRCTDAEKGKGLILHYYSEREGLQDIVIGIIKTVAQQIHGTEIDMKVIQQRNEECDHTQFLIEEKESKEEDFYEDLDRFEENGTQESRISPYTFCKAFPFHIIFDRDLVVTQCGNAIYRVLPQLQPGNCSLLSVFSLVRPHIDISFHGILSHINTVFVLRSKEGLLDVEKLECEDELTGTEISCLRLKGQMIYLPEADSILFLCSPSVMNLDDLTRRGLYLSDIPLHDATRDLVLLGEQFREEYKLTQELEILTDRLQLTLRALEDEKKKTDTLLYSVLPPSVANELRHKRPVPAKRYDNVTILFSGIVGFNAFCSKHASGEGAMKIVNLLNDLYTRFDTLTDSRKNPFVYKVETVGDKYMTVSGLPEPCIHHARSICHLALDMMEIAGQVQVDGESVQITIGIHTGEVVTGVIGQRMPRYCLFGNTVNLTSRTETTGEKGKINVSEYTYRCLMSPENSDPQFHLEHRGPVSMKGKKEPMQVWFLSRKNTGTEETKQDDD
Description: Cell-Based sGC Functional Assay (CASA Assay). Conditions: CHO-K1/sGC cells; for EC50: intracellular cGMP by HTRF, 1 hr at 37° C., IP from 4P fit, presence or absence of 1 μM DETA-NO not given; for Emax: cGMP as percentage of maximum cGMP production of Compound A (=100% activation), read-out: % ACT (percent activation). An excerpt:
Biological Assays: Cell-Based sGC Functional Assay (CASA Assay)
sGC is a heme-containing enzyme that converts GTP to secondary messenger cGMP. Increases in cGMP levels affect several physiological processes including vasorelaxation through multiple downstream pathways. […] Heme-dependent activators (HDAs) preferentially activate sGC containing a ferrous heme group. To determine the effect of sGC activators on enzyme activity, the CASA assay was developed to monitor the generation of cGMP in a cell line that stably expresses the heterodimeric sGC protein.
A CHO-K1 cell line stably expressing the sGC α1/β1 heterodimer was generated using a standard transfection protocol. CHO-K1 cells were transfected with plasmids pIREShyghsGCα1 and pIRESneo-hsGCβ1 simultaneously using FUGENE reagent. Clones that stably express both subunits were selected with hygromycin and neomycin for ˜2 weeks. Clone #7 was chosen for the assay and was designated CHO-K1/sGC. CHO-K1/sGC cells were maintained in F-K12 medium containing 10% heat-inactivated Fetal Bovine Serum (FBS), 100 μg/mL penicillin/streptomycin, 0.5 mg/mL hygromycin and 0.25 mg/mL G418. The cells were then cryopreserved in LN2. On the day of the assay, cells were thawed and resuspended in EBSS Assay Buffer (EAB, Sigma, E3024) supplemented with 5 mM MgCl2, 10 mM HEPES (4-(2-hydroxyethyl)piperazine-1-ethanesulfonic acid) and 0.05% BSA (bovine serum albumin) and cell density was then adjusted to 4×10^5/mL with EAB. IBMX (3-isobutyl-1-methylxanthin, 0.5 mM) was added to inhibit degradation of cGMP. Compounds were diluted from DMSO stock solutions and added to the assay at a final DMSO concentration of 2.5%. Cells were incubated with compounds in the presence and absence of 1 μM of Diethylenetriamine/nitric oxide adduct (DETA-NO; Sigma, 17018) for 1 hr at 37° C. At the end of the incubation period, the reaction was terminated and the cells were lysed with the detection reagents from Cisbio Kits. The level of intracellular cGMP was determined using an HTRF-based assay kit (CisBio, 62GM2PEC), which detects the displacement of a fluorescence labeled cGMP from its specific antibody. The cGMP produced by test compounds was directly compared to the maximum cGMP production (this value was set to equal 100% activation) of the published sGC-HDA Compound A:
[drawing 123] (Example 1 in WO 2010/065275, published Jun. 10, 2010). The test compounds' activity was then expressed as a percentage of Compound A, the standard in every experiment. This percent activation was calculated either in the presence or absence of DETA-NO which was then plotted. IP and maximum fold induction was derived using ADA analysis software for 4P fit.
On the technique in general: Time-resolved FRET reads energy transfer from a long-lived donor to a nearby acceptor.

For `[2H]C([2H])([2H])n1ncc2c(-c3nc(N)c4c(n3)NC(=O)C4(C)c3ccc(C#N)cc3)nc(CCC(F)(F)C(F)(F)F)nc21` (single isomer, unassigned) [Example 47, 4-(4-Amino-5-methyl-2-(6-(3,3,4,4,4-pentafluorobutyl)-1-trideuteriomethyl-1H-pyrazolo[3,4-d]pyrimidin-4-yl)-6-oxo-6,7-dihydro-5H-pyrrolo[2,3-d]pyrimidin-5-yl)benzonitrile], the EC50 came out at 30 nM and the Emax came out at 95%.
The corresponding values for `[2H]C([2H])([2H])n1ncc2c(-c3nc(O)c4c(n3)NC(=O)C4(C)c3ccc(F)cc3)nc(CCC(F)(F)C(F)(F)F)nc21` (centres unmarked) [Example 48, 5-(4-Fluorophenyl)-4-hydroxy-5-methyl-2-(6-(3,3,4,4,4-pentafluorobutyl)-1-trideuteriomethyl-1H-pyrazolo[3,4-d]pyrimidin-4-yl)-5H-pyrrolo[2,3-d]pyrimidin-6(7H)-one] are 664 nM and 93%.
Taken in the same sequence, the figures for `COc1ccc(C2(C)C(=O)Nc3nc(-c4nc(CCCC(F)(F)F)nc5c4cnn5C)nc(N)c32)cc1F` (single isomer, unassigned) [Example 15, 4-Amino-5-(3-fluoro-4-methoxyphenyl)-5-methyl-2-(1-methyl-6-(4,4,4-trifluorobutyl)-1H-pyrazolo[3,4-d]pyrimidin-4-yl)-5H-pyrrolo[2,3-d]pyrimidin-6(7H)-one] were 52 nM and 113%.
The corresponding values for `CCn1ncc2c(-c3nc(N)c4c(n3)NC(=O)C4(C(=O)NC3CC3)C3CC3)nc(CCC(F)(F)C(F)(F)F)nc21` (single isomer, unassigned) [Example 38, 4-Amino-N,5-dicyclopropyl-2-(1-ethyl-6-(3,3,4,4,4-pentafluorobutyl)-1H-pyrazolo[3,4-d]pyrimidin-4-yl)-6-oxo-6,7-dihydro-5H-pyrrolo[2,3-d]pyrimidine-5-carboxamide] are 648 nM and 112%.
Take `Cn1ccc2c(-c3nc(N)c4c(n3)NC(=O)C4(C)C)nc(CCC(F)(F)C(F)(F)F)nc21` [Example 63, 4-Amino-5,5,7′-trimethyl-2′-(3,3,4,4,4-pentafluorobutyl)-5H,7′H-[2,4′-bipyrrolo[2,3-d]pyrimidin]-6(7H)-one]: the EC50 was determined as 502 nM and the Emax is 76%.
The corresponding values for `Cn1ncc2c(-c3nc(N)c4c(n3)NC(=O)C4(C)C(=O)NC3CC3)nc(Cc3cccc(F)c3F)nc21` (single isomer, unassigned) [Example 40, 4-Amino-N-cyclopropyl-2-(6-(2,3-difluorobenzyl)-1-methyl-1H-pyrazolo[3,4-d]pyrimidin-4-yl)-5-methyl-6-oxo-6,7-dihydro-5H-pyrrolo[2,3-d]pyrimidine-5-carboxamide] are 55 nM and 121%.
The corresponding values for `CCOC(=O)C1(C2CC2)C(=O)Nc2nc(-c3nc(CCC(F)(F)C(F)(F)F)nc4c3cnn4C)nc(N)c21` (single isomer, unassigned) [Example 26, Ethyl 4-amino-5-cyclopropyl-2-(1-methyl-6-(3,3,4,4,4-pentafluorobutyl)-1H-pyrazolo[3,4-d]pyrimidin-4-yl)-6-oxo-6,7-dihydro-5H-pyrrolo[2,3-d]pyrimidine-5-carboxylate] are 830 nM and 93%.
The corresponding values for `[2H]C([2H])([2H])n1nc(C2CC2)c2c(-c3nc(N)c4c(n3)NC(=O)C4(C)c3ccc(F)cc3)nc(CCC(F)(F)C(F)(F)F)nc21` (centres unmarked) [Example 59, 4-Amino-2-(3-cyclopropyl-6-(3,3,4,4,4-pentafluorobutyl)-1-trideuteriomethyl-1H-pyrazolo[3,4-d]pyrimidin-4-yl)-5-(4-fluorophenyl)-5-methyl-5H-pyrrolo[2,3-d]pyrimidin-6(7H)-one] are 299 nM and 94%.
As for `[2H]C([2H])([2H])n1nnc2c(-c3nc(N)c4c(n3)NC(=O)C4(C)c3ccc(Cl)cc3)nc(CCC(F)(F)C(F)(F)F)nc21` (single isomer, unassigned) [Example 70, 4-Amino-5-(4-chlorophenyl)-5-methyl-2-(5-(3,3,4,4,4-pentafluorobutyl-3-trideuteriomethyl)-3H-[1,2,3]triazolo[4,5-d]pyrimidin-7-yl)-5H-pyrrolo[2,3-d]pyrimidin-6(7H)-one], the EC50 was found to be 327 nM and the Emax came to 95%.
`Cn1ncc2c(-c3nc(N)c4c(n3)NC(=O)C4(C)NCC3CC3)nc(CCC(F)(F)C(F)(F)F)nc21` (centres unmarked) [Example 54, 4-Amino-5-((cyclopropylmethyl)amino)-5-methyl-2-(1-methyl-6-(3,3,4,4,4-pentafluorobutyl)-1H-pyrazolo[3,4-d]pyrimidin-4-yl)-5H-pyrrolo[2,3-d]pyrimidin-6(7H)-one]: the EC50 was 87 nM and the Emax was determined as 118%.
The corresponding values for `[2H]C([2H])([2H])n1ncc2c(-c3nc(N)c4c(n3)NC(=O)C4(CC)C(N)=O)nc(CCC(F)(F)C(F)(F)F)nc21` (single isomer, unassigned) [Example 36, 4-Amino-5-ethyl-2-(6-(3,3,4,4,4-pentafluorobutyl)-1-trideuteriomethyl-1H-pyrazolo[3,4-d]pyrimidin-4-yl)-6-oxo-6,7-dihydro-5H-pyrrolo[2,3-d]pyrimidine-5-carboxamide] are 878 nM and 121%.
The corresponding values for `Cn1nnc2c(-c3nc(N)c4c(n3)NC(=O)C4(C)c3ccc(F)cc3)nc(Cc3cccc(F)c3F)nc21` (single isomer, unassigned) [Example 66] are 156 nM and 69%.
The corresponding values for `[2H]C([2H])([2H])n1ncc2c(-c3nc(N)c4c(n3)NC(=O)C4(C)c3ccc(-c4nnco4)cc3)nc(CCC(F)(F)C(F)(F)F)nc21` (single isomer, unassigned) [Example 45, 5-(4-(1,3,4-Oxadiazol-2-yl)phenyl)-4-amino-5-methyl-2-(1-methyl-6-(3,3,4,4,4-pentafluorobutyl)-1H-pyrazolo[3,4-d]pyrimidin-4-yl)-5H-pyrrolo[2,3-d]pyrimidin-6(7H)-one] are 716 nM and 138%.

A word on the EC50: it is the concentration needed to bring the measured effect to its halfway point.
